In patent US20170190671A1, “BIS(ARYL)CATECHOL DERIVATIVES AS HERBICIDES” (E I DU PONT DE NEMOURS AND COMPANY, priority 2014, published 2017):

Assays:
[1] = test system: chickweed (common chickweed, Stellaria media); test: Test D preemergence; format: in vivo; conditions: scale 0 to 100
Outline: (§1)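 Seeds planted in silt loam soil and sprayed preemergence with test chemical in a non-phytotoxic solvent mixture with surfactant; postemergence plants grown in peat/vermiculite medium and treated at 2–18 cm (1- to 4-leaf stage). Visual rating versus untreated controls after 14 to 21 days, 0 (no effect) to 100 (complete control).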

[2] = test system: wild radish (Raphanus raphanistrum); test: Test D preemergence; format: in vivo; conditions: scale 0 to 100
Outline: as §1

[3] = test system: spring barley (Hordeum vulgare); test: Test D preemergence; format: in vivo; conditions: scale 0 to 100
Outline: as §1

[4] = test system: wild oat (Avenafatua); test: Test D postemergence; format: in vivo, Avena fatua; conditions: scale 0 to 100
Description: Seeds of plant species selected from bluegrass (annual bluegrass, Poa annua), blackgrass (Alopecurus myosuroides), canarygrass (Phalaris minor), chickweed (common chickweed, Stellaria media), cutleaf geranium (Geranium dissectum), galium (catchweed bedstraw, Galium aparine), downy bromegrass (Bromus tectorum), field poppy (Papaver rhoeas), field violet (Viola arvensis), green foxtail (Setaria viridis), deadnettle (henbit deadnettle, Lamium amplexicaule), Italian ryegrass (Lolium multiflorum), kochia (Kochia scoparia), lambsquarters (Chenopodium album), oilseed rape (Brassica napus), pigweed (Amaranthus retroflexus), chamomile (scentless chamomile, Matricaria inodora), Russian thistle (Salsola kali), speedwell (bird's-eye speedwell, Veronica persica), spring barley (Hordeum vulgare), spring wheat (Triticum aestivum), wild buckwheat (Polygonum convolvulus), wild mustard (Sinapis arvensis), wild oat (Avenafatua), wild radish (Raphanus raphanistrum), windgrass (Apera spica-venti), winter barley (Hordeum vulgare), and winter wheat (Triticum aestivum) were planted into a silt loam soil and treated preemergence with test chemicals formulated in a non-phytotoxic solvent mixture which included a surfactant.
At the same time, these species were planted in pots containing Redi-Earth® planting medium (Scotts Company, 14111 Scottslawn Road, Marysville, Ohio 43041) comprising spaghnum peat moss, vermiculite, wetting agent and starter nutrients and treated with postemergence applications of the test chemicals formulated in the same manner. Plants ranged in height from 2 to 18 cm (1- to 4-leaf stage). Treated plants and controls were maintained in a controlled growth environment for 14 to 21 days after which time all species were compared to controls and visually evaluated. Plant response ratings, summarized in Table D, are based on a scale of 0 to 100 where 0 is no effect and 100 is complete control. A dash (-) response means no test result.

[5] = test system: sedge, umbrella (small-flower umbrella sedge, Cyperus difformis); test: Test C flooded paddy; format: in vivo; conditions: Flood, scale 0 to 100
Description: (§2) At time of treatment, test pots were flooded to 3 cm above the soil surface, treated by application of test compounds directly to the paddy water, and then maintained at that water depth for the duration of the test. Treated plants and controls were maintained in a greenhouse for 13 to 15 days, after which time all species were compared to controls and visually evaluated. […] A dash (-) response means no test result.

[6] = test system: barnyardgrass (Echinochloa crus-galli); test: Test C flooded paddy; format: in vivo; conditions: Flood, scale 0 to 100
Description: as §2

[7] = test system: ducksalad (Heteranthera limosa); test: Test C flooded paddy; format: in vivo; conditions: Flood, scale 0 to 100
Description: as §2

[8] = test system: rice (Oryza sativa); test: Test C flooded paddy; format: in vivo; conditions: Flood, scale 0 to 100
Description: as §2

[9] = test system: cocklebur (common cocklebur, Xanthium strumarium); test: Test E preemergence; format: in vivo; conditions: scale 0 to 100
Outline: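 Seeds were sown in silt loam soil and sprayed preemergence with test chemicals in a non-phytotoxic solvent mixture containing surfactant. For postemergence, plants at the 1- to 4-leaf stage (2 to 18 cm) in peat-based potting medium were treated. After 14 to 21 days in a greenhouse, injury was rated visually against controls, 0 (no effect) to 100 (complete control).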

Row | Structure (SMILES) | Plant response rating, Chickweed ([1]; 16 g ai/ha) | Plant response rating, Chickweed ([1]; 31 g ai/ha) | Plant response rating, Chickweed ([1]; 62 g ai/ha) | Plant response rating, Chickweed ([1]; 125 g ai/ha) | Plant response rating, Radish, Wild ([2]; 16 g ai/ha) | Plant response rating, Radish, Wild ([2]; 31 g ai/ha) | Plant response rating, Radish, Wild ([2]; 62 g ai/ha) | Plant response rating, Radish, Wild ([2]; 125 g ai/ha) | Plant response rating, Barley, Spring ([3]; 16 g ai/ha) | Plant response rating, Barley, Spring ([3]; 31 g ai/ha) | Plant response rating, Barley, Spring ([3]; 62 g ai/ha) | Plant response rating, Barley, Spring ([3]; 125 g ai/ha) | Plant response rating, Oat, Wild ([4]; 16 g ai/ha) | Plant response rating, Oat, Wild ([4]; 31 g ai/ha) | Plant response rating, Oat, Wild ([4]; 62 g ai/ha) | Plant response rating, Oat, Wild ([4]; 125 g ai/ha) | further results
1 | N#Cc1cccc(Oc2ncc(Cl)cn2)c1Oc1ncc(Cl)cn1 [Compound 3, 2,3-bis[(5-chloro-2-pyrimidinyl)oxy]benzonitrile] | 100 | 100 | 100 | 100 | 30 | 80 | 100 | 100 | 0 | 0 | 0 | 40 | 15 | 15 | 15 | 20 | –
2 | N#Cc1cccc(Oc2ncc(Cl)cn2)c1Oc1ncc(Br)cn1 [Compound 4, 2-[(5-bromo-2-pyrimidinyl)oxy]-3-[(5-chloro-2-pyrimidinyl)oxy]benzonitrile] | – | – | – | – | – | – | – | – | – | – | – | – | – | – | – | – | Plant response rating, Sedge, Umbrella ([5]; 31 g ai/ha): 0; Plant response rating, Sedge, Umbrella ([5]; 62 g ai/ha): 0; Plant response rating, Sedge, Umbrella ([5]; 125 g ai/ha): 75; Plant response rating, Sedge, Umbrella ([5]; 250 g ai/ha): 100; Plant response rating, Barnyardgrass ([6]; 31 g ai/ha): 0; Plant response rating, Barnyardgrass ([6]; 62 g ai/ha): 0; Plant response rating, Barnyardgrass ([6]; 125 g ai/ha): 20; Plant response rating, Barnyardgrass ([6]; 250 g ai/ha): 40; Plant response rating, Ducksalad ([7]; 31 g ai/ha): 0; Plant response rating, Ducksalad ([7]; 62 g ai/ha): 40; Plant response rating, Ducksalad ([7]; 125 g ai/ha): 100; Plant response rating, Ducksalad ([7]; 250 g ai/ha): 100; Plant response rating, Rice ([8]; 31 g ai/ha): 0; Plant response rating, Rice ([8]; 62 g ai/ha): 0; Plant response rating, Rice ([8]; 125 g ai/ha): 0; Plant response rating, Rice ([8]; 250 g ai/ha): 30
3 | Clc1cnc(Oc2cccc(Br)c2Oc2ncc(Cl)cn2)nc1 [Compound 19, 2,2′-[[3-bromo-1,2-phenylene]bis(oxy)]bis[5-chloropyrimidine]] | – | – | – | – | – | – | – | – | – | – | – | – | – | – | – | – | Plant response rating, Cocklebur ([9]; 16 g ai/ha): 0; Plant response rating, Cocklebur ([9]; 62 g ai/ha): 0; Plant response rating, Cocklebur ([9]; 125 g ai/ha): 0
4 | Fc1cccc(Oc2ncc(Cl)cn2)c1Oc1ccc(Cl)nc1 [Compound 20] | – | – | – | – | – | – | – | – | – | – | – | – | – | – | – | – | Plant response rating, Sedge, Umbrella ([5]; 31 g ai/ha): 0; Plant response rating, Sedge, Umbrella ([5]; 62 g ai/ha): 0; Plant response rating, Sedge, Umbrella ([5]; 125 g ai/ha): 65; Plant response rating, Sedge, Umbrella ([5]; 250 g ai/ha): 80; Plant response rating, Barnyardgrass ([6]; 31 g ai/ha): 0; Plant response rating, Barnyardgrass ([6]; 62 g ai/ha): 0; Plant response rating, Barnyardgrass ([6]; 125 g ai/ha): 0; Plant response rating, Barnyardgrass ([6]; 250 g ai/ha): 0; Plant response rating, Ducksalad ([7]; 31 g ai/ha): 0; Plant response rating, Ducksalad ([7]; 62 g ai/ha): 0; Plant response rating, Ducksalad ([7]; 125 g ai/ha): 45; Plant response rating, Ducksalad ([7]; 250 g ai/ha): 70; Plant response rating, Rice ([8]; 31 g ai/ha): 0; Plant response rating, Rice ([8]; 62 g ai/ha): 0; Plant response rating, Rice ([8]; 125 g ai/ha): 0; Plant response rating, Rice ([8]; 250 g ai/ha): 0
5 | Fc1cccc(Oc2ncc(Cl)cn2)c1Oc1ncc(Cl)cn1 [Compound 21, 2,2′-[[3-fluoro-1,2-phenylene]bis(oxy)]bis[5-chloropyrimidine]] | – | – | – | – | – | – | – | – | – | – | – | – | – | – | – | – | Plant response rating, Cocklebur ([9]; 31 g ai/ha): 35; Plant response rating, Cocklebur ([9]; 62 g ai/ha): 40; Plant response rating, Cocklebur ([9]; 125 g ai/ha): 50
6 | Fc1cnc(Oc2c(Br)cccc2Oc2ncc(Cl)cn2)nc1 [Compound 22] | 10 | 25 | 100 | 100 | 45 | 55 | 70 | 80 | 0 | 5 | 15 | 65 | 10 | 25 | 35 | 45 | –
7 | Fc1cnc(Oc2c(F)cccc2Oc2ncc(Cl)cn2)nc1 [Compound 23] | 50 | 100 | 100 | 100 | 25 | 70 | 90 | 100 | 0 | 5 | 30 | 75 | 15 | 15 | 20 | 35 | –
8 | FC(F)(F)c1cnc(Oc2c(Br)cccc2Oc2ncc(Cl)cn2)nc1 [Compound 24] | 10 | 100 | 100 | 100 | 0 | 20 | 45 | 70 | 0 | 20 | 30 | 85 | 15 | 20 | 25 | 35 | –
9 | Fc1cccc(Oc2ncc(C(F)(F)F)cn2)c1Oc1ncc(Cl)cn1 [Compound 42, 5-chloro-2-[2-fluoro-6-[[5-(trifluoromethyl)-2-pyrimidinyl]oxy]phenoxy]pyrimidine] | 70 | 100 | 100 | 100 | 25 | – | 85 | 100 | 0 | 35 | 15 | 65 | 25 | 45 | 40 | 70 | –
